Assay results from patent US20090312385A1, “CANNABINOID RECEPTOR MODULATORS FOR TREATING NON-IMMEDIATE TYPE ALLERGIC DISEASES” (Glenmark Pharmaceuticals, S.A., priority 2007, published 2009).

Tested on: TDI-induced dermatitis in BALB/c mice
Test: toluene-2,4-diisocyanate (TDI) induced dermatitis model, topical treatment of the ear
Assay type: in vivo, female BALB/c mice
Details: for inhibition of various parameters: standard reference compounds, dose not stated
Experimental: The sensitization protocol was as per W. Baumer et al., J Pharm Pharmacol., 55(8):1107-14 (2003). The abdominal region was shaved and depilated using Veet. Subsequently, the horny layers were stripped 10 times with adhesive tape. For active sensitization, 100 μl of 5% TDI was applied to the stripped skin for 3 consecutive days.
Prescreening was performed 21 days later. In brief, the sensitized mice were challenged with an application of 10 μl of 0.5% TDI on both the inner and outer surface of the left ear, the right ear served as control in each mouse. Ear thickness was measured with a cutimeter (Model7309, Mitutoyo Japan) prior to challenge and 24 hours after challenge. […] Animals were rested for 7 days after prescreening, to allow for the ear thickness to return to normal.
Five groups (A-E) were studied.
On day 28, test compounds. GRC-CPD-A (0.3, 3 and 10%) were prepared using DMSO and acetone in the ratio of 1:9 as solvents. 20 μl (10 μl on each side of the ear) of the formulation was applied to the left ear of each mouse as per the study design 6 hours prior to challenge with TDI. 20 μl of TDI was applied to both inner and outer surface of the left ear of each mouse. The right ear served as control and received an application of 10 μl of acetone on each side. 24 hours post TDI challenge ear thickness was determined and ears were collected for histology and eosinophil peroxidase (EPO) determination. Ear sections were processed for histology and stained with hematoxylin-eosin (HE) and lesions were scored as follows: 0=no cell infiltration or edema, 1-4-granulocyte infiltration/oedema depending on severity. A combined congo-red-toluidine blue staining was also carried out to identify eosinophils which were then quantified per 12 high power fields (hpf). EPO levels in ear sections were determined by standard […] assay using […] as substrate.
All data were expressed as mean±SEM. All groups were subjected to one-way ANOVA and means were compared using Dunnett's post hoc test using GraphPad prism software.

[1] = conclusion, in a dose dependent manner (0.3, 3 and 10% topical)

SMILES	inhibition of various parameters	EPO levels [1]	ear swelling (oedema and eosinophil infiltration) [1]	inhibition of ear swelling (topical application of 10%, 6 hours prior to TDI challenge, ear thickness 24 hours post TDI challenge, FIG. 1)	histological scores (topical application of 10%, HE-stained ear sections, lesion score 0-4, 24 hours post TDI challenge, FIG. 2)	EPO levels in the ear (topical application of 10%, eosinophil peroxidase in ear sections, 24 hours post TDI challenge, FIG. 4)	eosinophil infiltration (topical application of 10%, eosinophils per 12 hpf in ear sections, 24 hours post TDI challenge, FIG. 3)
C=CC[C@@H]1/C=C(\C)C[C@H](C)C[C@H](OC)[C@H]2O[C@@](O)(C(=O)C(=O)N3CCCC[C@H]3C(=O)O[C@H](/C(C)=C/[C@@H]3CC[C@@H](O)[C@H](OC)C3)[C@H](C)[C@@H](O)CC1=O)[C@H](C)C[C@@H]2OC [tacrolimus, reference compound]	significant inhibition	–	–	–	–	–	–
C[C@]12CCC(=O)C=C1CC[C@@H]1[C@@H]2[C@@H](O)C[C@@]2(C)[C@H]1CC[C@]2(O)C(=O)CO [hydrocortisone, reference compound]	significant inhibition	–	–	–	–	–	–
CC(C)(C)NC(=O)c1nn(-c2ccc(F)cc2F)c2c1[C@H]1CC[C@@H]2C1 [GRC-CPD-A, (1R,7S)—N5-(tert-butyl)-3-(2,4-difluorophenyl)-3,4-diazatricylco[5.2.1.0^2,6]deca-2(6),4-diene-5-carboxamide]	–	effectively inhibits	effectively inhibits	significant (p<0.001) dose-dependent inhibition	improved	inhibited	inhibited
